Reference: the NIST ThermoML archive (doi:10.1016/j.fluid.2015.01.002)

Key:
[1] = xn = mol fraction of the nth substance listed; settings: 298.15 K, 101 kPa, Liquid, Vibrating tube method
[2] = refractive index (Na D-line) (dimensionless); xn = mol fraction of the nth substance listed; settings: 298.15 K, 101 kPa, Liquid, Standard Abbe refractometry
[3] = 298.15 K; 101.33 kPa; Liquid; Vibrating tube method
[4] = refractive index (Na D-line) (dimensionless); settings: 298.15 K; 101.33 kPa; Liquid; Standard Abbe refractometry

CC#N [acetonitrile] + c1ccccc1
Settings | mass density, [1] [kg/m3] | refractive index, [2]
x2 = 0.05 | 784.35 | 1.3523
x2 = 0.1 | 791.68 | 1.3638
x2 = 0.2 | 805.24 | 1.3823
x2 = 0.2998 | 817.45 | 1.402
x2 = 0.4001 | 828.54 | 1.4217
x2 = 0.4999 | 838.46 | 1.4378
x2 = 0.6002 | 847.41 | 1.4531
x2 = 0.7004 | 855.36 | 1.466
x2 = 0.7997 | 862.34 | 1.4789
x2 = 0.9002 | 868.48 | 1.4892
x2 = 0.9506 | 871.14 | 1.4929

COCCO [2-methoxyethan-1-ol] + c1ccccc1
Settings | mass density, [1] [kg/m3] | refractive index, [2]
x2 = 0.05 | 955.11 | 1.4054
x2 = 0.0998 | 950.35 | 1.4105
x2 = 0.2001 | 940.54 | 1.4193
x2 = 0.2998 | 930.95 | 1.4286
x2 = 0.4 | 921.55 | 1.4385
x2 = 0.4999 | 912.55 | 1.4486
x2 = 0.5999 | 903.8 | 1.4586
x2 = 0.7 | 895.3 | 1.4679
x2 = 0.8 | 887.18 | 1.477
x2 = 0.8998 | 879.76 | 1.4864
x2 = 0.95 | 876.36 | 1.4916

CC#N [acetonitrile]
Settings | mass density [kg/m3] | refractive index
[3] | 776.64 | –
[4] | – | 1.34143

Cc1ccc(C)cc1 [1,4-dimethylbenzene] + CC#N
Settings | mass density, [1] [kg/m3] | refractive index, [2]
x1 = 0.05 | 785.5 | 1.3575
x1 = 0.1 | 793.4 | 1.3717
x1 = 0.2 | 806.77 | 1.3975
x1 = 0.3 | 817.69 | 1.4181
x1 = 0.4 | 826.78 | 1.4353
x1 = 0.5 | 834.35 | 1.4498
x1 = 0.6 | 840.73 | 1.4642
x1 = 0.7 | 846.09 | 1.4757
x1 = 0.8001 | 850.43 | 1.4835
x1 = 0.9001 | 854.1 | 1.4889
x1 = 0.9503 | 855.52 | 1.4913

Cc1ccc(C)cc1 [1,4-dimethylbenzene]
Settings | mass density [kg/m3] | refractive index
[3] | 856.78 | –
[4] | – | 1.49281

COCCO [2-methoxyethan-1-ol] + Cc1ccc(C)cc1
Settings | mass density, [1] [kg/m3] | refractive index, [2]
x2 = 0.0499 | 952.02 | 1.4069
x2 = 0.0999 | 944.39 | 1.4136
x2 = 0.1999 | 930.07 | 1.4253
x2 = 0.3 | 917.28 | 1.4367
x2 = 0.3999 | 905.75 | 1.4462
x2 = 0.5001 | 895.38 | 1.4557
x2 = 0.6 | 885.92 | 1.4641
x2 = 0.6999 | 877.19 | 1.4717
x2 = 0.7999 | 869.23 | 1.4793
x2 = 0.8999 | 862.2 | 1.4862
x2 = 0.9499 | 859.28 | 1.4895

CC#N [acetonitrile] + Cc1ccccc1
Settings | mass density, [1] [kg/m3] | refractive index, [2]
x2 = 0.0499 | 784.94 | 1.3557
x2 = 0.1 | 792.57 | 1.3686
x2 = 0.2 | 806.07 | 1.3917
x2 = 0.3 | 817.61 | 1.412
x2 = 0.4 | 827.52 | 1.4308
x2 = 0.4999 | 835.99 | 1.4457
x2 = 0.6 | 843.26 | 1.458
x2 = 0.6999 | 849.43 | 1.4683
x2 = 0.8001 | 854.74 | 1.4785
x2 = 0.9 | 858.99 | 1.487
x2 = 0.9498 | 860.78 | 1.4907

Cc1ccccc1 [toluene]
Settings | mass density [kg/m3] | refractive index
[3] | 862.34 | –
[4] | – | 1.49367

CCCCCCCCCCCCCCCC [hexadecane]
Settings | mass density [kg/m3] | refractive index
[3] | 770.3 | –
[4] | – | 1.43225

COCCO [2-methoxyethan-1-ol] + Cc1ccccc1
Settings | mass density, [1] [kg/m3] | refractive index, [2]
x2 = 0.05 | 953.61 | 1.4048
x2 = 0.0998 | 947.42 | 1.4113
x2 = 0.1999 | 935.21 | 1.4233
x2 = 0.3001 | 923.65 | 1.434
x2 = 0.4 | 912.84 | 1.4437
x2 = 0.4999 | 902.65 | 1.453
x2 = 0.6 | 893.14 | 1.4616
x2 = 0.7001 | 884.22 | 1.4701
x2 = 0.8 | 875.94 | 1.4782
x2 = 0.9 | 868.48 | 1.486
x2 = 0.9498 | 865.12 | 1.4899

COCCO [2-methoxyethan-1-ol]
Settings | mass density [kg/m3] | refractive index
[3] | 959.73 | –
[4] | – | 1.39981

c1ccccc1 [benzene]
Settings | mass density [kg/m3] | refractive index
[3] | 873.73 | –
[4] | – | 1.49749
